What was measured:
[1] = target: T1, Recombinant human JAK2 catalytic domain (Homo sapiens, UniProt O60674); assay: JAK2 inhibition assay (polyGT substrate / Ulight-JAK1 peptide assay); type: biochemical
T1 construct: Recombinant human JAK2 catalytic domain (amino acids 808-1132; catalog number PV4210); GST; purchased Invitrogen PV4210

[2] = target: T2, Recombinant human JAK3 catalytic domain (Homo sapiens, UniProt P52333); assay: JAK3 inhibition assay; type: biochemical
T2 construct: Recombinant human JAK3 catalytic domain (amino acids 781-1124; catalog number PV3855); purchased Invitrogen PV3855
Method: Recombinant human JAK3 catalytic domain (amino acids 781-1124; catalog number PV3855) was purchased from Invitrogen. 0.5 ng JAK3 protein was incubated with 2.5 μg polyGT substrate (Sigma catalog number P0275) in kinase reaction buffer (25 mM Tris pH 7.5, 0.5 mM EGTA, 10 mM MgCl2, 2.5 mM DTT, 0.5 mM Na3VO4, 5 mM b-glycerolphosphate, 0.01% Triton X-100, 1 μM non-radioactive ATP, […] ^33P-gamma-ATP (GE Healthcare, catalog number AH9968) final concentrations) with or without 5 μL containing test compound or vehicle (DMSO, 1% final concentration), in a total volume of 25 μL, in a polypropylene 96-well plate (Greiner, V-bottom). After 45 min at 30° C., reactions were stopped by adding 25 μL/well of 150 mM phosphoric acid. All of the terminated kinase reaction was transferred to prewashed (75 mM phosphoric acid) 96 well filter plates (Perkin Elmer catalog number 6005177) using a cell harvester (Perkin Elmer). Plates were washed 6 times with 300 μL per well of a 75 mM phosphoric acid solution and the bottom of the plates was sealed. 40 μL/well of Microscint-20 was added, the top of the plates was sealed and readout was performed using the Topcount (Perkin Elmer). Kinase activity was calculated by subtracting counts per min (cpm) obtained in the presence of a positive control inhibitor (10 μM staurosporine) from cpm obtained in the presence of vehicle. The ability of a test compound to inhibit this activity was determined as:
[formula] • RFU test compound=RFU determined for sample with test compound present • RFU control=RFU determined for sample with positive control inhibitor • RFU vehicle=RFU determined in the presence of vehicle
Dose dilution series were prepared for the compounds enabling the testing of dose-response effects in the JAK3 assay and the calculation of the IC50 for each compound. Each compound was routinely tested at concentration of 20 μM followed by a 1/5 serial dilution, 10 points in a final concentration of 1% DMSO. When potency of compound series increased, more dilutions were prepared and/or the top concentration was lowered (e.g. 5 μM, 1 μM).

[3] = Illustrative Compounds of the invention (Table VII)
[4] = Illustrative Compounds of the invention (Table IX)

T2 sequence (P52333 781-1124): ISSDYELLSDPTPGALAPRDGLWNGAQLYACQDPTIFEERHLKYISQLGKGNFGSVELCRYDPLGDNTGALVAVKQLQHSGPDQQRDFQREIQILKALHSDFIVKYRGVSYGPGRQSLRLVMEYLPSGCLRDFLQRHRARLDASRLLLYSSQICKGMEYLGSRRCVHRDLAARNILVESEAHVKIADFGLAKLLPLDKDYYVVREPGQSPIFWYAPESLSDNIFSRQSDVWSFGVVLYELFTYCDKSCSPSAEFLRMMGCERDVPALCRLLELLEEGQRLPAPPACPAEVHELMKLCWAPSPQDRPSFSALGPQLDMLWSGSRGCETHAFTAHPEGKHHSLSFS
T1 sequence (O60674 808-1132): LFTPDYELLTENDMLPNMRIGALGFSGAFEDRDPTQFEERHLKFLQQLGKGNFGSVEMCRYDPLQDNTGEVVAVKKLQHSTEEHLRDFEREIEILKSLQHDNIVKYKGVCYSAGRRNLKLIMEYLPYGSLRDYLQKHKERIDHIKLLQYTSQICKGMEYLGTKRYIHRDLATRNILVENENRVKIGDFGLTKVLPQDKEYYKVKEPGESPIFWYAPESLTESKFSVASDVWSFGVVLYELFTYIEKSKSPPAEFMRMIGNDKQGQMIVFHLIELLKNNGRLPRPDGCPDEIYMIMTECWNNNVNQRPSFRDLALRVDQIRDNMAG

Row | SMILES | IC50 [1, 3] [nM] | IC50 [2, 4] [nM] | IC50 ([1]; Comparative Compounds (Table VIII)) [nM] | IC50 ([2]; Comparative Compounds (Table X)) [nM]
1 | Cc1cc(C#N)ncc1Oc1cc(N(C)C)c2ncn(C)c2c1 [Cpd 35, 5-[7-(dimethylamino)-3-methyl-benzimidazol-5-yl]oxy-4-methyl-pyridine-2-carbonitrile] | > 500 | > 500 |  | 
2 | Cc1cc(C#N)ncc1Oc1cc(NC(=O)NC(C)C)c2ncn(C)c2c1 [Cpd 38, 1-[6-[(6-cyano-4-methyl-3-pyridyl)oxy]-1-methyl-benzimidazol-4-yl]-3-isopropyl-urea] | 100 to 500 | > 500 |  | 
3 | CN(c1cc2c(cn1)ncn2C)c1ccc(C#N)cc1F [D, reference compound] |  |  | > 500 | > 500

Second part, the molecule after the results:

Row | IC50 [1, 3] [nM] | IC50 [2, 4] [nM] | IC50 ([1]; Comparative Compounds (Table VIII)) [nM] | IC50 ([2]; Comparative Compounds (Table X)) [nM] | SMILES
4 | > 500 | > 500 |  |  | CNc1cc(Oc2cnc(C#N)cc2C)cc2c1ncn2C [Cpd 34, 4-methyl-5-[3-methyl-7-(methylamino)benzimidazol-5-yl]oxy-pyridine-2-carbonitrile]
5 | > 500 | > 500 |  |  | Cc1cc(C#N)ncc1Oc1cc(NC(=O)N2CC(O)C2)c2ncn(C)c2c1 [Cpd 36, N-[6-[(6-cyano-4-methyl-3-pyridyl)oxy]-1-methyl-benzimidazol-4-yl]-3-hydroxy-azetidine-1-carboxamide]
6 | > 500 | > 500 |  |  | Cc1cc(C#N)ncc1Oc1cc(NC(=O)N2CCOCC2)c2ncn(C)c2c1 [Cpd 37, N-[6-[(6-cyano-4-methyl-3-pyridyl)oxy]-1-methyl-benzimidazol-4-yl]morpholine-4-carboxamide]

— patent US10179771B2 (GALAPAGOS NV, priority 2014, dated 2019)
